Data reported in ChEMBL document CHEMBL4014348, “Design, Multicomponent Synthesis, and Anticancer Activity of a Focused Histone Deacetylase (HDAC) Inhibitor Library with Peptoid-Based Cap Groups” (J Med Chem, 2017).
Values joined by “and” are separate entries in the source; they are usually repeats but may differ in a detail not shown here. Equal values may be shown once.

Key:
A2780cisR = assay: Cytotoxicity against human A2780cisR cells assessed as cell survival after 72 hrs by MTT assay; format: functional, cell-based
[1] = biological target: T1, Histone deacetylase 1/2/3/6 (Homo sapiens, UniProt Q13547+O15379+Q9UBN7+Q92769); assay: Inhibition of HDAC1/2/3/6 in human Cal27CisR cells using Boc-Lys(epsilon-Ac)-AMC as substrate preincubated for 18 hrs followed by substrate addition measured after 3 hrs by fluorescence assay; format: cell-based
[2] = biological target: T1, Histone deacetylase 1/2/3/6; assay: Inhibition of HDAC1/2/3/6 in human A2780cisR cells using Boc-Lys(epsilon-Ac)-AMC as substrate preincubated for 18 hrs followed by substrate addition measured after 3 hrs by fluorescence assay; format: cell-based
[3] = biological target: T1, Histone deacetylase 1/2/3/6; assay: Inhibition of HDAC1/2/3/6 in human A2780 cells using Boc-Lys(epsilon-Ac)-AMC as substrate preincubated for 18 hrs followed by substrate addition measured after 3 hrs by fluorescence assay; format: cell-based
[4] = biological target: T1, Histone deacetylase 1/2/3/6; assay: Inhibition of HDAC1/2/3/6 in human Cal27 cells using Boc-Lys(epsilon-Ac)-AMC as substrate preincubated for 18 hrs followed by substrate addition measured after 3 hrs by fluorescence assay; format: cell-based
CAL-27 = assay: Cytotoxicity against human CAL27 cells assessed as cell survival after 72 hrs by MTT assay; format: functional, cell-based; conditions: CAL-27, 72 h
[5] = Cytotoxicity against human Cal27CisR cells assessed as cell survival after 72 hrs by MTT assay; format: functional, cell-based
A2780 = assay: Cytotoxicity against human A2780 cells assessed as cell survival after 72 hrs by MTT assay; format: functional, cell-based; conditions: A2780, 72 h
Histone deacetylase 2 = Histone deacetylase 2 (Homo sapiens, UniProt Q92769); assay: Inhibition of full length human recombinant C-terminal FLAG-tagged HDAC2 expressed in baculovirus infected Sf9 insect cells using Boc-Lys(epsilon-Ac)-AMC as substrate measured after 90 mins by fluorescence assay; format: cell-based
Histone deacetylase 1 = Histone deacetylase 1 (Homo sapiens, UniProt Q13547); assay: Inhibition of C-terminal FLAG/His-tagged recombinant human HDAC1 expressed in baculovirus infected Sf9 insect cells using Z-(Ac)Lys-AMC as substrate measured after 90 mins by fluorescence assay
[6] = biological target: T2, Protein deacetylase HDAC6 (Homo sapiens, UniProt Q9UBN7); assay: Inhibition of N-terminal GST-tagged recombinant human HDAC6 expressed in baculovirus infected Sf9 insect cells using Z-(Ac)Lys-AMC as substrate measured after 90 mins by fluorescence assay
T2 sequence (Q9UBN7 whole entry): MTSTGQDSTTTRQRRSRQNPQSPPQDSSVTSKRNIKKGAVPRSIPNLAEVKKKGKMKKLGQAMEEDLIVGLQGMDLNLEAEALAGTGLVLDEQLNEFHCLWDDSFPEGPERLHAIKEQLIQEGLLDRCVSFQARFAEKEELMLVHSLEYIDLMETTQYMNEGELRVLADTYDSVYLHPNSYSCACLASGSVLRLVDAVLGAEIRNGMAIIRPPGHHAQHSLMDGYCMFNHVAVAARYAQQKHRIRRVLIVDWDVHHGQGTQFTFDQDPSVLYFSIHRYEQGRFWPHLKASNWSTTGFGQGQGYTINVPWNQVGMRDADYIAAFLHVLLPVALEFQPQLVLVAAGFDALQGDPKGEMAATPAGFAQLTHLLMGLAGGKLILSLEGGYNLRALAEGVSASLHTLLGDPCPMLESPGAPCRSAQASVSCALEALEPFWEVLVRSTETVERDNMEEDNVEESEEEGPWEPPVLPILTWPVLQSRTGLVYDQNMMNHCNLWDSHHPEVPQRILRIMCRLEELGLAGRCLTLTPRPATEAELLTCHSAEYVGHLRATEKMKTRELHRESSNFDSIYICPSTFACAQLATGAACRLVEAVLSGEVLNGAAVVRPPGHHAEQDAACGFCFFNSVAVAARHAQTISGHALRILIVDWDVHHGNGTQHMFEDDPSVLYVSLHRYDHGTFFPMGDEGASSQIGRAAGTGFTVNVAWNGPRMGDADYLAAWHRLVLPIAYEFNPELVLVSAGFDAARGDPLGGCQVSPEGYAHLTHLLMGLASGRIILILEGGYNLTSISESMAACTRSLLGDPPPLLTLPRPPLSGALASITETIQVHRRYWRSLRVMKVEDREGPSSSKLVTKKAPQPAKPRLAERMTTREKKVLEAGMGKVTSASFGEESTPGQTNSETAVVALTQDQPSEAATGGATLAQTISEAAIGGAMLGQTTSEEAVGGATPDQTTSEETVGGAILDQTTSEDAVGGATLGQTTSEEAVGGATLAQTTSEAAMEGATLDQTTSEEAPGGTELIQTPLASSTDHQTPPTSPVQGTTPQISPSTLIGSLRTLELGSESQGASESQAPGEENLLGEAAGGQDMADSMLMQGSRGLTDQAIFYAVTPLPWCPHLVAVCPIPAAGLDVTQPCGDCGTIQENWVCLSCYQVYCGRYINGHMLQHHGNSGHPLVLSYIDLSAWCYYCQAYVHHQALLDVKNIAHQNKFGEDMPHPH

Histone deacetylase 8 = biological target: T3, Histone deacetylase 8 (Homo sapiens, UniProt Q9BY41); assay: Inhibition of human recombinant HDAC8 expressed in Escherichia coli using Z-L-Lys(epsilon-trifluoroacetyl)-AMC as substrate measured after 90 mins by fluorescence assay
T3 sequence (Q9BY41 whole entry): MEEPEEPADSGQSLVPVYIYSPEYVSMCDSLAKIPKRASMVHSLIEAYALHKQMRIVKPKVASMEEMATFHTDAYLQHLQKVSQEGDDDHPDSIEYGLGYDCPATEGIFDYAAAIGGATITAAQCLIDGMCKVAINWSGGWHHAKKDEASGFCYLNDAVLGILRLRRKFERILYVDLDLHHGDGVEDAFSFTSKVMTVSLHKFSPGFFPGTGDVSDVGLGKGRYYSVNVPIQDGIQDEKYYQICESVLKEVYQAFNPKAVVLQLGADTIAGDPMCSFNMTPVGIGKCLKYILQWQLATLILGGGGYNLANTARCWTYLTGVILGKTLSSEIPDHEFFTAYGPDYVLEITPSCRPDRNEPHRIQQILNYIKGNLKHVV

[7] = biological target: Histone deacetylase 3/Nuclear receptor corepressor 2 (HDAC3/NCoR2) (Homo sapiens, UniProt O15379); assay: Inhibition of full length human recombinant C-terminal His-tagged HDAC3/NcoR2 expressed in baculovirus infected Sf9 insect cells using Boc-Lys(epsilon-Ac)-AMC as substrate measured after 90 mins by fluorescence assay
[8] = Apparent permeability in MDCK cells; format: ADME, cell-based, Canis lupus familiaris; conditions: dog
[9] = Apparent permeability in human Caco2 cells; format: ADME, cell-based, Caco-2
[10] = biological target: Voltage-gated inwardly rectifying potassium channel KCNH2 (Homo sapiens, UniProt Q12809); assay: Inhibition of human ERG
Voltage-gated inwardly rectifying potassium channel KCNH2, sequence (Q12809 whole entry): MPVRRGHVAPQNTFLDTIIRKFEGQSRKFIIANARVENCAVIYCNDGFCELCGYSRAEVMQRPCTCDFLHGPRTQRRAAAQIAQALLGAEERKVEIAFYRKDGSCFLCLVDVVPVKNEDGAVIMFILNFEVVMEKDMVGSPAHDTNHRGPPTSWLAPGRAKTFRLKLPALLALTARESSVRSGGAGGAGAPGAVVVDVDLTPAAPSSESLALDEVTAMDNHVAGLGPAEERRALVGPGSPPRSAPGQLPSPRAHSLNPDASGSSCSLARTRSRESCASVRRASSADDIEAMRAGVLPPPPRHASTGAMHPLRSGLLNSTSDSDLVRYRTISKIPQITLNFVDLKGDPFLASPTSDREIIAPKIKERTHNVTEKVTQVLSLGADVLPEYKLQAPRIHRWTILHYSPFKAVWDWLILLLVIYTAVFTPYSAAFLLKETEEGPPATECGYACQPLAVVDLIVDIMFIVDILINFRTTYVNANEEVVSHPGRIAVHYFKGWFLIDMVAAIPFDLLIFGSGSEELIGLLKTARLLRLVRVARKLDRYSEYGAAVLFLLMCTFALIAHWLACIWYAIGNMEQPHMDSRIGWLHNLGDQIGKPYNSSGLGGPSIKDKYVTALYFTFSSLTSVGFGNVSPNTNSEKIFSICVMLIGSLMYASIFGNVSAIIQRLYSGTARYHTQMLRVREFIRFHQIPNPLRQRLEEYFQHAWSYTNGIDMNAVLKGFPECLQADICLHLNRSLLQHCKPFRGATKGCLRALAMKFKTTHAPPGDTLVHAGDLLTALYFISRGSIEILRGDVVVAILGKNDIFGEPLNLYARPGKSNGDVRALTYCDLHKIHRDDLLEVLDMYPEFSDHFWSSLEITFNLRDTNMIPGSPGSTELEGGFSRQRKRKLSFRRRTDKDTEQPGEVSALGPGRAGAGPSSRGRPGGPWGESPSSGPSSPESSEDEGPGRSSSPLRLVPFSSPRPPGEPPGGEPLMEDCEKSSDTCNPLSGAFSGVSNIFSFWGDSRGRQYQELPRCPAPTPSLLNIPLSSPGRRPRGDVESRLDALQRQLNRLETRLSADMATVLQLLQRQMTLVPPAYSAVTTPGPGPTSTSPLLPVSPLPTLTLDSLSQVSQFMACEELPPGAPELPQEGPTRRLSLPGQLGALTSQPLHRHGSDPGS

Histone deacetylase 2, sequence (Q92769 whole entry): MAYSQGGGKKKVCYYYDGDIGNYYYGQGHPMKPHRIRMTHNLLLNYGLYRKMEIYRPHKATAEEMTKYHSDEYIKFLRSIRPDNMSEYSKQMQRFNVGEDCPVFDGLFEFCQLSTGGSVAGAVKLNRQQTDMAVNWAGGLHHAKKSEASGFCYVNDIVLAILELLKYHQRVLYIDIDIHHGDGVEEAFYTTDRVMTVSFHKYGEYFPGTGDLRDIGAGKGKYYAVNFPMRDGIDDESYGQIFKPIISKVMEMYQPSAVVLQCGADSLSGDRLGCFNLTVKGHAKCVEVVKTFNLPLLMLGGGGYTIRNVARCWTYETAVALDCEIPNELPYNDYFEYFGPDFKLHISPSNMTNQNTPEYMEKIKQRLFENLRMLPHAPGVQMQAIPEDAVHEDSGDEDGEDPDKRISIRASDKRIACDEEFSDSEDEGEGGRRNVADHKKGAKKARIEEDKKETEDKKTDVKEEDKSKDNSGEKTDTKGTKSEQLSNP
Histone deacetylase 3/Nuclear receptor corepressor 2 (HDAC3/NCoR2), sequence (O15379 whole entry): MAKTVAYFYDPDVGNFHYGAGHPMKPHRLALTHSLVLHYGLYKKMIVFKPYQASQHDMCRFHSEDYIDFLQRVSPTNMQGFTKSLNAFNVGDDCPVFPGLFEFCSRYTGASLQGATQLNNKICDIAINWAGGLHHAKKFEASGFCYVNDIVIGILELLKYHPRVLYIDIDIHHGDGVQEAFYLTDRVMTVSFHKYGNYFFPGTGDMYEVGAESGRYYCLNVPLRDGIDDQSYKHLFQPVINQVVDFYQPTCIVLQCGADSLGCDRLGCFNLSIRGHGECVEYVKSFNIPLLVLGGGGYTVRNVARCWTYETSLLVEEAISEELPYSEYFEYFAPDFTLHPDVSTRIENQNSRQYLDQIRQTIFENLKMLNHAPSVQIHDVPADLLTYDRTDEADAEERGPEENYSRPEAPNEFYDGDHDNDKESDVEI
Histone deacetylase 3/Nuclear receptor corepressor 2 (HDAC3/NCoR2), sequence (Q9Y618 whole entry, further chain): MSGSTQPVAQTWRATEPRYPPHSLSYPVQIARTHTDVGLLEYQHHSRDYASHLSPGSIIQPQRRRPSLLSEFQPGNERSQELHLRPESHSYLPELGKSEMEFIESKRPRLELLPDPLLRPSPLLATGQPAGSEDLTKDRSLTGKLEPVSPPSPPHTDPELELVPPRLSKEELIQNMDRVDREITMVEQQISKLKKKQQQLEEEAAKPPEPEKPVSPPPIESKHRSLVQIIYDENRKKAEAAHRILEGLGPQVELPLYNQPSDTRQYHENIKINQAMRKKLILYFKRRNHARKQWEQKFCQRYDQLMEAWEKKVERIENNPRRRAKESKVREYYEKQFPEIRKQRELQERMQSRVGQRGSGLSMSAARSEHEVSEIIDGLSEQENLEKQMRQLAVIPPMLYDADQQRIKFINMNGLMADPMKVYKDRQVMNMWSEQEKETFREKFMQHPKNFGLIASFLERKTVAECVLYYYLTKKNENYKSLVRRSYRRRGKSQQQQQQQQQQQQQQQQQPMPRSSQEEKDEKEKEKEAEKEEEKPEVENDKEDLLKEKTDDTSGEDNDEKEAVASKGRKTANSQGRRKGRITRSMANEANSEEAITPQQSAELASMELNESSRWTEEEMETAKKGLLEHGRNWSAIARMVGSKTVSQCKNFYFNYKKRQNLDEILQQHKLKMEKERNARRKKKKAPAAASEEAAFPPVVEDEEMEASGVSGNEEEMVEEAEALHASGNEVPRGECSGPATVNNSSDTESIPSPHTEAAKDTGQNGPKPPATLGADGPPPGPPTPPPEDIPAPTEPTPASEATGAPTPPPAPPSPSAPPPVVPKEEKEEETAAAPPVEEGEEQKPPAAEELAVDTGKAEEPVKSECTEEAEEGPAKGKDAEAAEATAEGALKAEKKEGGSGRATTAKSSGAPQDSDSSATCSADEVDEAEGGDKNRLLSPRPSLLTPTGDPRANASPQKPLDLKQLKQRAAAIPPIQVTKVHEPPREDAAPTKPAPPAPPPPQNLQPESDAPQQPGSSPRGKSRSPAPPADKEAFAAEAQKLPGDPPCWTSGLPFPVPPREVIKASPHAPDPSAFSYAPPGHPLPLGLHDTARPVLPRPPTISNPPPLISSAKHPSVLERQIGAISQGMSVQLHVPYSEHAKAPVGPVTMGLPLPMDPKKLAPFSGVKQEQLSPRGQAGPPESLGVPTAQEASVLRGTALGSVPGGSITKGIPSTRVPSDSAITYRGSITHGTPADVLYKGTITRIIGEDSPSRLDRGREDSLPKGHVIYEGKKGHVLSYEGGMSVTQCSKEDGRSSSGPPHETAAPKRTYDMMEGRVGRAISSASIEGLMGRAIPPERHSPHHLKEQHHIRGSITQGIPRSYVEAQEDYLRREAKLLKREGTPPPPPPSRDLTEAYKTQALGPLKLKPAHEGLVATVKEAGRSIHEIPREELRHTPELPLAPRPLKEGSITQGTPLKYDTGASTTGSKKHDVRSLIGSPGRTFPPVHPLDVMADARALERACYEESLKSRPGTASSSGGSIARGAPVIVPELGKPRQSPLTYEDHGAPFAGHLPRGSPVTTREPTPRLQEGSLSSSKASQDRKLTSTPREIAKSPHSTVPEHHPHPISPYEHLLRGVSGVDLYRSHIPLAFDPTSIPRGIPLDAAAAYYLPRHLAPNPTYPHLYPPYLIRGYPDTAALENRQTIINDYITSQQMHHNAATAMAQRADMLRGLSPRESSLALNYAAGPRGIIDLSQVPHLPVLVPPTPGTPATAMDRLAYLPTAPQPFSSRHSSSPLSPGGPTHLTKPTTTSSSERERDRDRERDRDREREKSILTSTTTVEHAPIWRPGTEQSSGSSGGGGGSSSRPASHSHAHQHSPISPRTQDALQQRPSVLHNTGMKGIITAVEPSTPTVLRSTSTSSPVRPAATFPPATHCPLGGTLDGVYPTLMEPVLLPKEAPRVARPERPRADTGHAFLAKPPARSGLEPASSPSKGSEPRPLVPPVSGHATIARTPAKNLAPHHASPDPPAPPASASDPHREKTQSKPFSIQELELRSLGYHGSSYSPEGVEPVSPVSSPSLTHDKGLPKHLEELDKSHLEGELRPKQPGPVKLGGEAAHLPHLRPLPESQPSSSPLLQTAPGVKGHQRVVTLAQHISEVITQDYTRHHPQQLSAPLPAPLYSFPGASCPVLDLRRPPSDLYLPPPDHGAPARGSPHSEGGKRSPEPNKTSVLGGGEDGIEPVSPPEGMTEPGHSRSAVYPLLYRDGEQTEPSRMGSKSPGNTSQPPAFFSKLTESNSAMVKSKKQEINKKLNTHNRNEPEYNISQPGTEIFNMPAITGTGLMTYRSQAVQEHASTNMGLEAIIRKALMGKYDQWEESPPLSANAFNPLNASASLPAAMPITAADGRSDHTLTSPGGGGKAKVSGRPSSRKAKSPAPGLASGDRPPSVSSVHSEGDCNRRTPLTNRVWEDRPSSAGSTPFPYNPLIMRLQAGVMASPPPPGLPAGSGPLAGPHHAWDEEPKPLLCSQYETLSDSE
Histone deacetylase 1, sequence (Q13547 whole entry): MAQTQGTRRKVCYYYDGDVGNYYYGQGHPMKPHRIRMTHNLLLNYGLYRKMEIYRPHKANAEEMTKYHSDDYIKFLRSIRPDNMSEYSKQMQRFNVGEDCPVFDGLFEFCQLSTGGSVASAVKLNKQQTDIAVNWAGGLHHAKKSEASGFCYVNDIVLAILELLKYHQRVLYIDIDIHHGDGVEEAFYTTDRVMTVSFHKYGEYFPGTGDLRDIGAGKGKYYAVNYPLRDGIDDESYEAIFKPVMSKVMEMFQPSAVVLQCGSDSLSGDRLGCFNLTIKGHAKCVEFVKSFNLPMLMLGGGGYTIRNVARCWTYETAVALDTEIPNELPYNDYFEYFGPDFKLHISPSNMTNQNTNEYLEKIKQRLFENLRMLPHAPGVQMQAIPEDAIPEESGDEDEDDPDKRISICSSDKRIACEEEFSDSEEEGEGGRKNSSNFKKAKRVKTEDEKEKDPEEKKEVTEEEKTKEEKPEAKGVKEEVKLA

Row | Structure (SMILES) | IC50 [1] | IC50 [2] | IC50 [3] | IC50 [4] | IC50 (Histone deacetylase 2) | IC50 (Histone deacetylase 1) | IC50 [6] | IC50 (Histone deacetylase 8) | IC50 [7] | Papp ([8]; MDCK, read-out: Papp) | Papp ([8]; mdck) | Papp ([9]; Caco-2, read-out: Papp) | Papp ([9]; caco-2) | IC50 (A2780cisR) | IC50 (CAL-27) | IC50 [5] | IC50 (A2780) | IC50 [10]
1 | CC(C)(C(=O)NC1CCCCC1)N(CCCCCC(=O)NO)C(=O)c1ccccc1 | 43000 nM | 44900 nM | 37900 nM | 26200 nM | – | – | – | – | – | – | – | – | – | 281000 nM | 66900 nM | 4070 nM | 295000 nM | –
2 | O=C(CCCCCN(CC(=O)NC1CCCCC1)C(=O)c1cccc2ccccc12)NO | 600 nM | 1290 nM | 960 nM | 750 nM | – | – | – | – | – | – | – | – | – | 4120 nM | 2400 nM | 5600 nM | 260 nM | –
3 | Cc1cc(C)cc(C(=O)N(CCCCCC(=O)NO)CC(=O)NCc2ccccc2)c1 | 410 nM | 350 nM | 630 nM | 370 nM | 61 nM | 24.7 nM | 135 nM | 7330 nM | 26 nM | – | – | – | – | 1850 nM | 700 nM | 1410 nM | 330 nM | –
4 | Cc1ccc(C(C(=O)NC2CCCCC2)N(CCCCCC(=O)NO)C(=O)c2ccccc2)cc1 (stereo unspecified) | 3220 nM | 3630 nM | 2810 nM | 2940 nM | – | – | – | – | – | – | – | – | – | 4290 nM | 4520 nM | 19000 nM | 2090 nM | –
5 | Cc1ccc(NC(=O)CN(CCCCCC(=O)NO)C(=O)c2cc(C)cc(C)c2)cc1 | 800 nM | 810 nM | 1300 nM | 950 nM | – | – | – | – | – | – | – | – | – | 2180 nM | 1670 nM | 2110 nM | 1270 nM | –
6 | O=C(CCCCCN(CC(=O)NC1CCCCC1)C(=O)c1ccccc1)NO | 1080 nM | 1130 nM | 1660 nM | 1340 nM | – | – | – | – | – | – | – | – | – | 8210 nM | 3800 nM | 10300 nM | 3460 nM | –
7 | CN(C)c1ccc(C(=O)N(CC(=O)NC2CCCCC2)Cc2ccc(C(=O)NO)cc2)cc1 | – | – | – | – | – | – | – | – | – | 6.6 ×10⁻⁶ cm/s | 5.8 ×10⁻⁶ cm/s | 9.8 ×10⁻⁶ cm/s | 10.1 ×10⁻⁶ cm/s | – | – | – | – | 21500 nM and 52100 nM
8 | O=C(CCCCCN1C(=O)c2ccccc2N(Cc2ccccc2)C(=O)[C@@H]1Cc1ccccc1)NO | – | – | – | – | – | – | – | – | – | 10.9 ×10⁻⁶ cm/s | – | 14.4 ×10⁻⁶ cm/s | – | – | – | – | – | 2230 nM
9 | O=C(CCCCCN(C(=O)c1ccccc1)C(C(=O)NC1CCCCC1)c1ccccc1)NO (stereo unspecified) | 2650 nM | 2920 nM | 3140 nM | 2060 nM | – | – | – | – | – | – | – | – | – | 5180 nM | 6360 nM | 5280 nM | 3870 nM | –
10 | O=C(CCCCCN(C(=O)c1ccccc1)C1(C(=O)NC2CCCCC2)CCCCC1)NO | 10200 nM | 10100 nM | 13400 nM | 14300 nM | – | – | – | – | – | – | – | – | – | 50500 nM | 44100 nM | 77500 nM | 42600 nM | –
11 | Cc1cc(C)cc(C(=O)N(CCCCCC(=O)NO)CC(=O)NC2CCCCC2)c1 | 640 nM | 930 nM | 880 nM | 710 nM | 84 nM | 27.4 nM | 214 nM | 7400 nM | 60 nM | – | – | – | – | 3810 nM | 1130 nM | 1140 nM | 160 nM | –

The next lines start with results.

Row | IC50 [1] | IC50 [2] | IC50 [3] | IC50 [4] | IC50 (Histone deacetylase 2) | IC50 (Histone deacetylase 1) | IC50 [6] | IC50 (Histone deacetylase 8) | IC50 [7] | Papp ([8]; MDCK, read-out: Papp) | Papp ([8]; mdck) | Papp ([9]; Caco-2, read-out: Papp) | Papp ([9]; caco-2) | Structure (SMILES) | IC50 (A2780cisR) | IC50 (CAL-27) | IC50 [5] | IC50 (A2780) | IC50 [10]
12 | 490 nM | 680 nM | 660 nM | 370 nM | 146 nM | 96.4 nM | 106 nM | 6760 nM | 16 nM | – | – | – | – | Cc1ccc(NC(=O)CN(CCCCCC(=O)NO)C(=O)c2ccc(N(C)C)cc2)cc1 | 1610 nM | 530 nM | 600 nM | 400 nM | –
13 | 132000 nM | 102000 nM | 127000 nM | 92500 nM | – | – | – | – | – | – | – | – | – | CC(C)(C)NC(=O)C(C)(C)N(CCCCCC(=O)NO)C(=O)c1ccccc1 | 579000 nM | 75800 nM | 13800 nM | 207000 nM | –
14 | 28800 nM | 30800 nM | 24500 nM | 18200 nM | – | – | – | – | – | – | – | – | – | CN(C)c1ccc(C(=O)N(CCCCCC(=O)NO)C(C)(C)C(=O)NC2CCCCC2)cc1 | 107000 nM | 47700 nM | 46100 nM | 68500 nM | –
15 | 4590 nM | 9510 nM | 8980 nM | 6850 nM | – | – | – | – | – | – | – | – | – | CC(C)(C)NC(=O)CN(CCCCCC(=O)NO)C(=O)c1ccccc1 | 42400 nM | 16700 nM | 19500 nM | 20700 nM | –
16 | 1520 nM | 1900 nM | 1420 nM | 1400 nM | – | – | – | – | – | – | – | – | – | CN(C)c1ccc(C(=O)N(CCCCCC(=O)NO)CC(=O)NC2CCCCC2)cc1 | 3310 nM | 2970 nM | 35500 nM | 1540 nM | –
17 | 800 nM | 820 nM | 1090 nM | 870 nM | – | – | – | – | – | – | – | – | – | CC(C)CNC(=O)CN(CCCCCC(=O)NO)C(=O)c1ccc(N(C)C)cc1 | 3190 nM | 1870 nM | 2110 nM | 1900 nM | –
18 | 1970 nM | 2490 nM | 2060 nM | 1780 nM | – | – | – | – | – | – | – | – | – | CN(C)c1ccc(C(=O)N(CCCCCC(=O)NO)CC(=O)NC(C)(C)C)cc1 | 5180 nM | 4040 nM | 2180 nM | 1030 nM | –
